PubChem BioAssay AID248 (DTP/NCI, 2004)
Several values for one entry are separate records, joined by “and”; a condition that tells them apart may be missing. Equal entries are not always repeated. Inconclusive results and toxic doses are left out. No stated cut-off is given here; in the data, active means T/C of 150% or more; inactive means T/C below 125%.

System: L1210 leukemia ip in BDF1 mice, survival T/C
Experiment: NCI In Vivo Anticancer Drug Screen. Data for tumor model L1210 Leukemia (intraperitoneal) in B6D2F1 (BDF1) mice
Settings: endpoint: mean survival time, higher = longer survival
Summary of the method: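 Tumor was transplanted into mice, which were then dosed with test compound or vehicle alone. Survival was recorded for each group, and the treated figure was expressed relative to the control figure.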

[1] = dose: 100.0 mg/kg/injection, schedule: Q01DX001 (ip), vehicle: carboxymethylcellulose (CMC)
[2] = dose: 200.0 mg/kg/injection, schedule: Q01DX001 (ip), vehicle: carboxymethylcellulose (CMC)
[3] = dose: 400.0 mg/kg/injection, schedule: Q01DX001 (ip), vehicle: carboxymethylcellulose (CMC)
[4] = dose: 100.0 mg/kg/injection, schedule: Q01DX009 (ip), vehicle: saline
[5] = dose: 200.0 mg/kg/injection, schedule: Q01DX009 (ip), vehicle: saline
[6] = dose: 400.0 mg/kg/injection, schedule: Q01DX009 (ip), vehicle: saline
[7] = dose: 100.0 mg/kg/injection, schedule: Q01DX009 (ip), vehicle: Klucel (hydroxypropylcellulose) (HPC)
[8] = dose: 100.0 mg/kg/injection, schedule: Q04DX003 (ip), vehicle: Klucel (hydroxypropylcellulose) (HPC)
[9] = dose: 200.0 mg/kg/injection, schedule: Q01DX009 (ip), vehicle: Klucel (hydroxypropylcellulose) (HPC)
[10] = dose: 200.0 mg/kg/injection, schedule: Q04DX003 (ip), vehicle: Klucel (hydroxypropylcellulose) (HPC)
[11] = dose: 400.0 mg/kg/injection, schedule: Q01DX009 (ip), vehicle: Klucel (hydroxypropylcellulose) (HPC)
[12] = dose: 400.0 mg/kg/injection, schedule: Q04DX003 (ip), vehicle: Klucel (hydroxypropylcellulose) (HPC)
[13] = dose: 50.0 mg/kg/injection, schedule: Q04DX003 (ip), vehicle: saline
[14] = dose: 100.0 mg/kg/injection, schedule: Q01DX001 (ip), vehicle: saline
[15] = dose: 200.0 mg/kg/injection, schedule: Q01DX001 (ip), vehicle: saline
[16] = dose: 100.0 mg/kg/injection, schedule: Q04DX002 (ip), vehicle: saline with Tween-80
[17] = dose: 200.0 mg/kg/injection, schedule: Q04DX002 (ip), vehicle: saline with Tween-80

Measured: T/C

CCSc1ncnc2c1nnn2C1OC(CO)C(O)C1O (stereo not drawn)
inactive: dose: 12.5 mg/kg/injection, schedule: Q01DX001 (ip), vehicle: saline with Tween-80 100 % of control | dose: 25.0 mg/kg/injection, schedule: Q01DX001 (ip), vehicle: saline with Tween-80 102 % of control | dose: 50.0 mg/kg/injection, schedule: Q01DX001 (ip), vehicle: saline with Tween-80 97 % of control | dose: 100.0 mg/kg/injection, schedule: Q01DX001 (ip), vehicle: saline with Tween-80 103 % of control | dose: 200.0 mg/kg/injection, schedule: Q01DX001 (ip), vehicle: saline with Tween-80 108 % of control

CC1=NN(c2ccccc2)/C(=N/N=C(N)N)C1CC1C(C)=NN(c2ccccc2)/C1=N/N=C(N)N (stereo not drawn)
inactive: dose: 15.0 mg/kg/injection, schedule: Q01DX Z (ip), vehicle: carboxymethylcellulose (CMC) 102 % of control | dose: 30.0 mg/kg/injection, schedule: Q01DX Z (ip), vehicle: carboxymethylcellulose (CMC) 97 % of control | dose: 60.0 mg/kg/injection, schedule: Q01DX Z (ip), vehicle: carboxymethylcellulose (CMC) 100 % of control and 102 % of control | dose: 120.0 mg/kg/injection, schedule: Q01DX Z (ip), vehicle: carboxymethylcellulose (CMC) 95 % of control and 96 % of control | dose: 240.0 mg/kg/injection, schedule: Q01DX Z (ip), vehicle: carboxymethylcellulose (CMC) 91 % of control

Nc1nc2nc(-c3ccccc3)nc(N)c2nc1-c1ccc(N(CCCl)CCCl)cc1
inactive: dose: 50.0 mg/kg/injection, schedule: Q01DX001 (ip), vehicle: carboxymethylcellulose (CMC) 98 % of control | [1] 95 % of control | [2] 101 % of control | [3] 98 % of control

O=C1C2CC3C(CC2C(=O)[N]1[Sn]([c]1ccccc1)([c]1ccccc1)[c]1ccccc1)C1(Cl)C(Cl)=C(Cl)C3(Cl)C1(Cl)Cl (stereo not drawn)
inactive: dose: 10.0 mg/kg/injection, schedule: Q01DX001 (ip), vehicle: carboxymethylcellulose (CMC) 98 % of control | dose: 20.0 mg/kg/injection, schedule: Q01DX001 (ip), vehicle: carboxymethylcellulose (CMC) 95 % of control | dose: 40.0 mg/kg/injection, schedule: Q01DX001 (ip), vehicle: carboxymethylcellulose (CMC) 101 % of control | dose: 80.0 mg/kg/injection, schedule: Q01DX001 (ip), vehicle: carboxymethylcellulose (CMC) 101 % of control

CC(C)(C)OC(=O)NCC(=O)NNC(=O)OC(C)(C)C
inactive: [4] 92 % of control | dose: 100.0 mg/kg/injection, schedule: Q04DX003 (ip), vehicle: saline sonified 101 % of control | [5] 89 % of control | dose: 200.0 mg/kg/injection, schedule: Q04DX003 (ip), vehicle: saline sonified 97 % of control | [6] 92 % of control | dose: 400.0 mg/kg/injection, schedule: Q04DX003 (ip), vehicle: saline sonified 95 % of control

COc1ccccc1N(C(C)=O)C1=C(Cl)C(=O)c2ccccc2C1=O
inactive: dose: 10.0 mg/kg/injection, schedule: Q01DX001 (ip), vehicle: saline 97 % of control | dose: 20.0 mg/kg/injection, schedule: Q01DX001 (ip), vehicle: saline 97 % of control

CCCCCCCCNC1=C(OC)C(=O)C(NCCCCCCCC)=C(OC)C1=O
inactive: [7] 98 % of control | [8] 96 % of control | [9] 104 % of control | [10] 91 % of control | [11] 98 % of control | [12] 88 % of control

CCOC(=O)C12CCCC(C1=O)[N+](CC)(CC)CC2 (stereo not drawn)
inactive: dose: 75.0 mg/kg/injection, schedule: Q01DX001 (ip), vehicle: saline 100 % of control | dose: 150.0 mg/kg/injection, schedule: Q01DX001 (ip), vehicle: saline 101 % of control

CNC(C#N)c1ccco1 (stereo not drawn)
inactive: dose: 6.25 mg/kg/injection, schedule: Q04DX003 (ip), vehicle: saline 102 % of control | dose: 12.5 mg/kg/injection, schedule: Q04DX003 (ip), vehicle: saline 95 % of control | [13] 94 % of control

NC(=O)c1[nH]cnc1/N=N/N(CCCl)Cc1ccccc1
inactive: dose: 100.0 mg/kg/injection, schedule: Q01DX001 (ip), vehicle: Klucel (hydroxypropylcellulose) (HPC) 111 % of control | [8] 123 % of control | dose: 133.0 mg/kg/injection, schedule: Q01DX001 (ip), vehicle: Klucel (hydroxypropylcellulose) (HPC) 120 % of control | [11] 117 % of control
active: [7] 255 % of control | [9] 164 % of control | [10] 221 % of control | dose: 400.0 mg/kg/injection, schedule: Q01DX001 (ip), vehicle: Klucel (hydroxypropylcellulose) (HPC) 174 % of control and 195 % of control | [12] 296 % of control

Oc1ccc(I)c2cccnc12
active: dose: 22.5 mg/kg/injection, schedule: Q01DX009 (ip), vehicle: saline 165 % of control | dose: 45.0 mg/kg/injection, schedule: Q01DX009 (ip), vehicle: saline 240 % of control | dose: 90.0 mg/kg/injection, schedule: Q01DX009 (ip), vehicle: saline 297 % of control | [4] 169 % of control | dose: 180.0 mg/kg/injection, schedule: Q01DX009 (ip), vehicle: saline 206 % of control
inactive: [1] 93 % of control | [2] 90 % of control | [3] 95 % of control

c1c[nH]c(C2Nc3ccccc3S2)c1 (stereo not drawn)
inactive: [14] 93 % of control | [15] 95 % of control

CCC[CH2][Sn]1([CH2]CCC)[O]OC(c2ccc(C(=O)OCC)cc2)[O]1 (stereo not drawn)
inactive: dose: 6.25 mg/kg/injection, schedule: Q04DX002 (ip), vehicle: other 102 % of control

CCCCCCCCCCCCC/C=N\NC(=O)CCCC(=O)N/N=C/CCCCCCCCCCCCC
inactive: dose: 50.0 mg/kg/injection, schedule: Q01DX001 (ip), vehicle: other 93 % of control | dose: 100.0 mg/kg/injection, schedule: Q01DX001 (ip), vehicle: other 91 % of control | dose: 200.0 mg/kg/injection, schedule: Q01DX001 (ip), vehicle: other 93 % of control | dose: 400.0 mg/kg/injection, schedule: Q01DX001 (ip), vehicle: other 98 % of control

N#CC(N)=NC1CCC(C2CCC(O)CC2)CC1 (stereo not drawn)
inactive: [7] 94 % of control | [9] 96 % of control | [11] 96 % of control

CC1CCc2nc3ccccc3nc21 (stereo not drawn)
inactive: [14] 91 % of control | [15] 97 % of control | dose: 400.0 mg/kg/injection, schedule: Q01DX001 (ip), vehicle: saline 91 % of control

COc1ccc(NC(=O)Oc2ccc(Cl)c(C)c2)c(OC)c1
inactive: [4] 118 % of control | [5] 114 % of control | [6] 108 % of control

O=[N+]([O-])c1ccc(Oc2ccc(S(=O)(=O)F)cc2)cc1
inactive: [7] 106 % of control | [9] 97 % of control | [11] 98 % of control

CCCC1(CCC)CN(C)C1=O
inactive: dose: 12.5 mg/kg/injection, schedule: Q01DX009 (ip), vehicle: saline 97 % of control | dose: 25.0 mg/kg/injection, schedule: Q01DX009 (ip), vehicle: saline 88 % of control | dose: 25.0 mg/kg/injection, schedule: Q04DX003 (ip), vehicle: saline 104 % of control | dose: 50.0 mg/kg/injection, schedule: Q01DX009 (ip), vehicle: saline 100 % of control | [13] 98 % of control | [4] 102 % of control | dose: 100.0 mg/kg/injection, schedule: Q04DX003 (ip), vehicle: saline 98 % of control | [5] 102 % of control | dose: 200.0 mg/kg/injection, schedule: Q04DX003 (ip), vehicle: saline 98 % of control

CN(C)c1ncnc2[nH]cc([N+](=O)[O-])c12
inactive: [1] 93 % of control | [2] 93 % of control

Clc1ccc(N=Cc2ccc3c(c2)OCO3)cc1
inactive: dose: 100.0 mg/kg/injection, schedule: Q01DX009 (ip), vehicle: other 93 % of control | dose: 200.0 mg/kg/injection, schedule: Q01DX009 (ip), vehicle: other 98 % of control | dose: 400.0 mg/kg/injection, schedule: Q01DX009 (ip), vehicle: other 90 % of control

CC(=O)c1ccc(O)c2ccccc12
inactive: [16] 92 % of control | [17] 95 % of control | dose: 400.0 mg/kg/injection, schedule: Q04DX002 (ip), vehicle: saline with Tween-80 100 % of control

O=C(N/N=C\c1cc(Cl)ccc1[N+](=O)[O-])c1ccccc1
inactive: [8] 97 % of control | [10] 97 % of control | [12] 103 % of control

CC(=O)CC(=O)Nc1ccccc1Cl
inactive: [8] 89 % of control | [10] 92 % of control | [12] 96 % of control

Cc1ccc(Cl)cc1NC(=S)N(C)C
inactive: [16] 98 % of control | [17] 98 % of control
